Data as given in PMC12406196, “Anticoronavirus Activity of Uridine Glycoconjugates Containing a 1,2,3-Triazole Moiety” (Journal of Medicinal Chemistry, 2025).
Entries after “also recorded” stand apart in the source; their conditions may differ. Like-named read-outs stand apart in the source and are kept apart here.

Tests used:
[1] = tested on: human coronavirus strain NL63 (HCoV-NL63); assay: HCoV-NL63 titer in medium of infected LLC-Mk2 cells, foci-forming assay; format: cell-based; conditions: for IC50: read-out: IC50 (HCoV-NL63); for antiviral efficacy against HCoV-NL63 compared with compound 24: dose-response 0–25 μM
Description: LR7 or LLC-Mk2 cells were infected at a MOI of 0.01 with MHV and HCoV-NL63, respectively, and treated with selected compounds at a concentration ranging from 0 to 50 μM. Culture supernatants were collected 1 day (MHV) or 4 days (HCoV-NL63) after infection. […]
(§1) The half-maximum inhibitory concentration value (IC50) indicating the concentration of compound needed to reduce virus titer by 50% in comparison to the control, was evaluated by GraphPad software (version 5.01, GraphPad Software, San Diego, CA).

SARS-CoV-2 = SARS-CoV-2 infectivity in supernatants of infected Vero cells, plaque assay; format: cell-based; conditions: for IC50: read-out: IC50 (SARS-CoV-2)
Description: Vero cells were seeded in appropriate plates and allowed to reach an approximately 90% confluence. For infection, 200 μL of viral suspension containing 10^5 pfu (SARS-CoV-2 strain SARS-CoV-2/human/Czech Republic/951/2020) was added to each well and incubated for 2 h at 37 °C to allow virus adsorption. After the incubation, the viral medium was removed, and the wells were washed gently with phosphate-buffered saline (PBS). Test compounds were prepared in serial dilutions to final concentrations of 50, 25, 12.5, 6.25, 3.125, and 0 μM in the medium (DMEM containing 2% FBS). The compounds were added in quadruplicate to the infected cells. The plates were then incubated for 48 h at 37 °C. Following the 48 h treatment period, the supernatants were removed, and plaque assays in Vero E6 cells were performed to assess viral titers. Cells were fixed and stained 4 days after infection to visualize plaques, as described previously.
as §1

[2] = MTS-based cell viability assay in LLC-Mk2 cells; conditions: Macaca mulatta, read-out: CC50 (HCoV-NL63 block)
Description: (§2) LR7, LLC-Mk2 or Vero cells were seeded in 96-well plates and cultured overnight. Next, the medium was changed to a new one supplemented with different concentrations (in triplicate) of analyzed compounds. Following the 2 days (LR7 and Vero) or 4 days (LLC-Mk-2) of incubation, CellTiter 96 AQueous nonradioactive cell proliferation assay (Promega) was performed according to the manufacturer’s instruction. The half-maximal cytotoxic concentration (CC50) was calculated as the concentration of a compound needed to reduce cell viability by 50% using GraphPad Prism software (version 5.01, GraphPad Software, San Diego, CA).

[3] = tested on: human coronavirus strain NL63 (HCoV-NL63); assay: HCoV-NL63 N protein expression in LLC-Mk2 cells, Western blot and densitometry; format: cell-based; conditions: for HCoV-NL63 N protein level: 50 μM, MOI 0.01, 4 days p.i., Western blot/densitometry
Description: LLC-Mk2 monolayers grown in 24-well plates were infected with HCoV-NL63 at an MOI value of 0.01 for 2 h. Unbound virus was removed, and cells were cultured in medium supplemented with different concentrations of compounds. Four days postinfection, cells were collected and lysed in CellLyticM Cell Lysis Reagent (Sigma). Following the protein separation by SDS-PAGE and transfer to PVDF membranes, proteins were immunoblotted using specific mouse anti-N NL63 Abs (Eurofins, Spain) or rabbit anti-β-catenin Abs (Santa Cruz), followed by antimouse or antirabbit secondary antibodies conjugated with HRP. Proteins were visualized and analyzed by chemiluminescence using the UVITEC Cambridge Alliance MINI HD detection system. The densitometric analysis of cells treated with 50 μM dose of a panel of glycoconjugates was performed based on three biological replicates of N and β-catenin immunoblots. The N protein levels were expressed as a percentage relative to DMSO-treated infected cells, while β-catenin levels were expressed as a percentage relative to noninfected control cells. The data were presented as the ratio of N/β-catenin for each sample, normalized accordingly.

HCoV-NL63 RNA synthesis = assay: HCoV-NL63 RNA level in infected LLC-Mk2 cells, RT-PCR; format: cell-based, human coronavirus NL63; conditions: MOI 0.01, 96 h p.i.
Description: LR7 or LLC-Mk2 were cultured in 12-well plate overnight. Next, LR7 cells were infected with MHV at an MOI value of 1 for 1 h or LLC-Mk2 cells were infected with HCoV-NL63 at an MOI value of 0.01 for 2 h. Following removal of unbound virus, cells were cultured with medium supplemented with different concentrations of selected compounds. 8 h p.i. (MHV) or 96 h p.i. (HCoV-NL63) cells were collected and total RNA was isolated by CoV RNA kit (A&A Biotechnology, Poland) according to the manufacturer’s instruction. To evaluate levels of viral RNA in infected cells Qiagen One-Step RT-PCR reaction was performed. Following reverse transcription, the PCR reaction was carried out using primers: F: […], R: […] for amplification of a fragment of HCoV-NL63 genome (position: 26418–26960 bp NC_005831.2) and F: […] and R: […] for amplification of a fragment of MHV genome (position: 30341–30902 bp FJ647225.1). For internal control fragment of β-actin mRNA was reverse transcribed and amplified using primers For: […] and Rev: […].

[4] = tested on: SC-VLP entry into HEK-hACE2 cells; assay: SARS-CoV-2 VLP (SC-VLP) internalization assay in HEK-hACE2 cells, luciferase; format: cell-based; conditions: 12.5 μM during SC-VLP production
[5] = tested on: murine hepatitis virus strain A59 (MHV); assay: Reduction of MHV cytopathic effect (CPE) in LR7 cells, MTS/PMS readout; format: cell-based; conditions: for protection against MHV-induced CPE: 50 μM, MOI 0.01, 24 h; for concentration above which MHV-induced CPE was significantly reduced: MOI 0.01, 24 h p.i.
Description: LR7 cells were seeded in a 96-well plate and cultured overnight. Next, the cells were infected with MHV at an MOI value of 0.01 in medium without FBS. Following 1 h of incubation, the medium containing the virus was collected and cells were covered with a medium supplemented with different concentrations (in triplicate) of the analyzed compounds or DMSO. 24 h p.i. cells viability was evaluated by CellTiter 96 AQueous nonradioactive cell proliferation assay (Promega) according to the manufacturer’s instruction.

[6] = MTS-based cell viability assay in LR7 cells; set-up: species or system mouse; conditions: mouse, LR7 cells, 48 h, 0–100 μM, read-out: CC50 (MHV block)
Description: as §2

LR7 cells = assay: MTS-based cell viability assay in LR7 cells; set-up: species or system mouse; conditions: 50 μM, uninfected LR7 cells
Description: as §2

[7] = tested on: murine hepatitis virus strain A59 (MHV); assay: MHV titer in medium of infected LR7 cells, plaque assay; format: cell-based; conditions: for IC50: Murine coronavirus, read-out: IC50 (MHV)
Description: LR7 or LLC-Mk2 cells were infected at a MOI of 0.01 with MHV and HCoV-NL63, respectively, and treated with selected compounds at a concentration ranging from 0 to 50 μM. Culture supernatants were collected 1 day (MHV) or 4 days (HCoV-NL63) after infection. Virus titer was determined by plaque assay.
as §1

[8] = MTS-based cell viability assay in Vero cells; conditions: African green monkey, 96 h per table footnote, read-out: CC50 (SARS-CoV-2 block)
Description: as §2

SARS-CoV-2 replicon = format: cell-based
[9] = Severe acute respiratory syndrome coronavirus 2, Vero, supplementary CSV, decimal comma
[10] = LR7, supplementary CSV, decimal comma
[11] = 96 h, virus titer released from LLC-Mk2 cells, MOI 0.01, 4 days p.i.
[12] = Severe acute respiratory syndrome coronavirus 2, Vero cells, supernatant 48 h after infection, plaque assay
[13] = virus titer released from LR7 cells, MOI 0.01, 24 h p.i., plaque assay

SMILES	antiviral efficacy against HCoV-NL63 compared with compound 24 ([1]; LLC-Mk2 cells)	IC50 (SARS-CoV-2; [9]) [µM]	CC50 at 96 h [2] [µM]	HCoV-NL63 N protein level [3]	concentration that effectively suppressed HCoV-NL63 RNA synthesis (HCoV-NL63 RNA synthesis) [µM]	protection against MHV-induced CPE [5]	concentration above which MHV-induced CPE was significantly reduced [5]	CC50 at 48 h [6] [µM]	reduction of cell viability (cytotoxicity in uninfected cells) (LR7 cells)	IC50 [7, 10] [µM]	CC50 at 96 h [8] [µM]	IC50 [1, 11] [µM]	IC50 (SARS-CoV-2; [12]) [µM]	inhibition of SARS-CoV-2 replication (replicon) (SARS-CoV-2 replicon)	IC50 [7, 13] [µM]	also measured
CC(=O)OC[C@H]1O[C@@H](OCc2cn(C[C@H]3O[C@@H](n4ccc(=O)[nH]c4=O)[C@H](O[Si](C)(C)C(C)(C)C)[C@@H]3O[Si](C)(C)C(C)(C)C)nn2)[C@H](OC(C)=O)[C@@H](OC(C)=O)[C@H]1OC(C)=O [Compound 15, 2′,3′-di-O-tert-Butyldimethylsilyl-5′-deoxy-5′-[4-(2″,3″,4″,6″-tetra-O-acetyl-β-D-galactopyranosyloxymethyl)-1,2-3-triazol-1-yl]-uridine]	slightly lower activity	27.4	49.8	significantly reduced; also recorded: No N protein was detected	12.5	significantly reduced cell death	above 12.5 μM	134	10–30%	7.62	> 100	–	–	–	–	IC50 ([1]; LLC-MK2, 96 h): 6.8 µM; IC50 ([1]; LLC-MK2, supplementary CSV, decimal comma): 6.79 µM; IC50 (SARS-CoV-2; Severe acute respiratory syndrome coronavirus 2, Vero, 48 h): ~27.4 µM; reduction of SC-VLP entry compared with the control [4]: 80%; IC50 ([7]; LR7, 24 h): 7.6 µM
CC(=O)OC[C@H]1O[C@@H](SCc2cn(C[C@H]3O[C@@H](n4ccc(=O)[nH]c4=O)[C@H](O[Si](C)(C)C(C)(C)C)[C@@H]3O[Si](C)(C)C(C)(C)C)nn2)[C@H](OC(C)=O)[C@@H](OC(C)=O)[C@@H]1OC(C)=O [Compound 20, 2′,3′-di-O-tert-Butyldimethylsilyl-5′-deoxy-5′-[4-(2″,3″,4″,6″-tetra-O-acetyl-β-D-glucopyranosylthiomethyl)-1,2-3-triazol-1-yl]-uridine]	slightly lower activity	16.2	> 100	significantly reduced; also recorded: reduction of N, as well as β-catenin levels	6.25	significantly reduced cell death; also recorded: nearly eliminating CPE	above 6.25 μM	> 100	no detectable toxicity	11.3	> 100	5.5	~16.2	inhibited SARS-CoV-2 replication; also recorded: effectively suppressed SARS-CoV-2 replication; also recorded: partial	11.3	reduction in SARS-CoV-2 viral titers (SARS-CoV-2; 25 μM, Vero cells): highest level of activity
CC(=O)OC[C@H]1O[C@@H](SCn2cc(COC[C@H]3O[C@@H](n4ccc(=O)[nH]c4=O)[C@H](O[Si](C)(C)C(C)(C)C)[C@@H]3O[Si](C)(C)C(C)(C)C)nn2)[C@H](OC(C)=O)[C@@H](OC(C)=O)[C@@H]1OC(C)=O [Compound 24, 2′,3′-di-O-tert-Butyldimethylsilyl-5′-O-[(1-(2″,3″,4″,6″-tetra-O-acetyl-β-D-glucopyranosylthiomethyl)-1,2-3-triazol-4-yl)-methyl]-uridine]	–	18.7	59.1	significantly reduced; also recorded: No N protein was detected	6.25	significantly reduced cell death	above 12.5 μM	> 100	10–30%	–	> 100	3.1	~18.7	inhibited SARS-CoV-2 replication; also recorded: effectively suppressed SARS-CoV-2 replication; also recorded: partial	3.7	dose above which HCoV-NL63 viral release was completely inhibited ([1]; LLC-Mk2 cells, 4 days p.i., foci-forming assay): above 6.25 μM; dose above which HCoV-NL63 viral protein expression was completely inhibited ([3]; 4 days p.i., immunoblot): above 6.25 μM; dose above which no virus was detectable (MHV titer) ([7]; LR7 cells, 24 h p.i., plaque assay): above 6.25 μM
